Results as given in patent US8748423B2, “Compositions and methods for the prevention and treatment of cancer” (Kinex Pharmaceuticals, LLC, priority 2010, dated 2014).

Columns and labels:
[1] = test system: lung cancer cell line H460; experiment: standard tumor growth inhibition assay, H460; assay type: cell-based; conditions: Homo sapiens, NCI-H460, read-out: GI50 (H460)
Method: (§1) These GI50's were determined using the standard tumor growth inhibition assays, similar to that described in detail for the HT29 cell line above, and the following cell lines: colon tumor cell lines KM12, lung cancer cell line H460 and lung cancer cell line A549 (all are NCI standard tumor cell lines).

[2] = test system: colon tumor cell lines KM12; experiment: standard tumor growth inhibition assay, KM12; assay type: cell-based; conditions: Homo sapiens, KM12, read-out: GI50 (KM12)
Method: as §1

c-Src 3T3 cells = experiment: BrdU cell growth inhibition assay, c-Src 3T3; assay type: cell-based, mouse
Method: (§2) The GI50s for several of the compounds of the invention were assayed as described herein.
The c-Src 3T3 is a mouse fibroblast NIH 3T3 normal cell line that has been transfected with a point-mutant of human c-Src wherein tyrosine 527 has been converted to a phenylalanine. This mutation results in “constitutively active” c-Src because phosphorylation on tyrosine 527 results in auto-inhibition of Src by having it fold back on its own SH2 domain. With a Phe there, this phosphorylation can't occur and therefore auto-inhibition can't occur. Thus, the always fully active mutant Src then converts the normal mouse fibroblasts into rapidly growing tumor cells. […]
In the BrdU Assay for cell growth inhibition, quantitation of cell proliferation was based on the measurement of BrdU incorporation during DNA synthesis. […]
The growth inhibition (GI) is determined from the formula GI=(T0−Tn×100/T0−CONn) where T0 is the BrdU growth of untreated cells at time “0”, Tn is the BrdU growth of treated cells at day “n” and CONn is the control BrdU growth of control cells at day “n”. […]
Seeded 96 well plates were allowed to attach overnight for 18-24 hours, either at 37° C. and 5% CO2 for HT-29 or at 37° C. and 10% CO2 for c-Src 3T3. Approx 18-24 hours after seeding, the initial growth of cells (T0) was determined for untreated cells using the BrdU assay. […]

U87 = experiment: brain tumor cell line growth inhibition, U87; assay type: cell-based; conditions: Homo sapiens, U-87 MG; U87, glioblastoma; astrocytoma
Method: (§3) These GI50s were determined using standard tumor growth inhibition assays.

SW1088 = experiment: brain tumor cell line growth inhibition, SW1088; assay type: cell-based; conditions: Homo sapiens; SW1088, astrocytoma
Method: as §3

SK-N-FI = experiment: brain tumor cell line growth inhibition, SK-N-FI; assay type: cell-based; conditions: Homo sapiens, neuroblastoma
Method: as §3

Daoy = experiment: brain tumor cell line growth inhibition, Daoy; assay type: cell-based; conditions: Homo sapiens, desmoplastic cerebellar medulloblastoma
Method: as §3

GL261 = experiment: brain tumor cell line growth inhibition, GL261; assay type: cell-based; conditions: GL261, mouse glioblastoma
Method: as §3

SK-N-MC = experiment: brain tumor cell line growth inhibition, SK-N-MC; assay type: cell-based; conditions: Homo sapiens, neuroepithelioma
Method: as §3

[3] = body weight in GL261 glioma survival study; assay type: in vivo, C57BL/6 mice
Method: (§4) The studies were conducted in C57BL/6 mice. GL261 glioma cells (1×10^5 in 5 μl DMEM) were implanted intracranial coordinates: bregma, lateral 2.0 mm, anterior 1.2 mm, 3.0 mm depth dura. Treatment was initiated 3 days post implantation.
FIGS. 2A-F show the weight gain in each of the C57BL/6 mice in the different treatment groups. The average weight at endpoint for each of the treatment groups is shown below in Table 12. FIG. 3 is a graph showing the average weights over a 40-day period for each of the treatment groups.

LN-18 = experiment: brain tumor cell line growth inhibition, LN-18; assay type: cell-based; conditions: Homo sapiens; LN-18, glioblastoma; glioma
Method: as §3

HT29 cell line = experiment: BrdU cell growth inhibition assay, HT-29; assay type: cell-based; conditions: Homo sapiens
Method: as §2
The HT29 cell line is a NCI standard human colon carcinoma cell line. […] HT29 cells were routinely cultured in McCoy's 5A medium supplemented with Fetal Bovine Serum (1.5% v/v) and L-glutamine (2 mM).
In the BrdU Assay for cell growth inhibition, quantitation of cell proliferation was based on the measurement of BrdU incorporation during DNA synthesis. The Cell Proliferation ELISA BrdU assay kit (colorimetric) was obtained from Roche Applied Science and performed as per vendor instructions.
The growth inhibition (GI) is determined from the formula GI=(T0−Tn×100/T0−CONn) where T0 is the BrdU growth of untreated cells at time “0”, Tn is the BrdU growth of treated cells at day “n” and CONn is the control BrdU growth of control cells at day “n”. The GI50 was extrapolated and the data plotted using XL-Fit 4.0 software.
For 96 well culture plate experiments, c-Src 3T3 medium was supplemented with 10 mM HEPES buffer. […]
Seeded 96 well plates were allowed to attach overnight for 18-24 hours, either at 37° C. and 5% CO2 for HT-29 or at 37° C. and 10% CO2 for c-Src 3T3. Approx 18-24 hours after seeding, the initial growth of cells (T0) was determined for untreated cells using the BrdU assay. […] Plates were assayed for BrdU and the data analyzed as above for GI50. […]

GL261 glioma = experiment: intracranial GL261 glioma survival study; assay type: in vivo, C57BL/6 mice; conditions: 5 mg/kg weekly oral
Method: as §4
The median survival range and the log-rank (Mantel-Cox) statistical test results comparing the survival distributions of the samples.

**Q.** What does the source list for `O=C(Cc1ccc(-c2ccccc2)cc1)NCc1cccc(F)c1` [Compound 2]?
**A.** GI50 [1]: 890 nM; GI50 [2]: 410 nM

**Q.** For `O=C(Cc1ccc(-c2ccc(OCCN3CCOCC3)cc2)cn1)NCc1cccc(F)c1` [Compound 38], which “GI50 (c-Src 3T3)” value (c-Src 3T3 cells) is on record?
**A.** inactive

**Q.** Which IC50 (U87) does the source give for `O=C(Cc1ccc(-c2ccc(OCCN3CCOCC3)cc2)cn1)NCc1ccccc1` [Compound 134, 2-(5-(4-(2-morpholinoethoxy)phenyl)pyridin-2-yl)-N-benzylacetamide] here?
**A.** 33.1 nM

**Q.** And the IC50 (SW1088)?
**A.** 76.1 nM

**Q.** What about the IC50 (SK-N-FI) of the same molecule?
**A.** 1.7 nM

**Q.** What about the IC50 (Daoy) of the same molecule?
**A.** 13.6 nM

**Q.** And the IC50 (GL261)?
**A.** 13.7 nM

**Q.** What about the IC50 (SK-N-MC) of the same molecule?
**A.** 5.8 nM

**Q.** What about the “Average weight at endpoint” value ([3]; 5 mg/kg (Compound 134, bid)) of the same molecule?
**A.** 14.3 g

**Q.** What about the IC50 (LN-18) of the same molecule?
**A.** 14.5 nM

**Q.** Which GI50 (HT29 cell line) does the source give for `CN1CCN(CCOc2ccc(-c3ccc(CC(=O)NCc4cccc(F)c4)nc3)c(F)c2)CC1` [Compound 137] here?
**A.** 26 nM

**Q.** What does the source list for `Cn1nnc2c(C(N)=O)ncn2c1=O` [Temodar ®, reference compound]?
**A.** Median survival (GL261 glioma): 29; survival Range (GL261 glioma): 26-29; Average weight at endpoint ([3]; 5 mg/kg (Temodar, once weekly)): 13.3 g
